In patent US12441703B2, “Carboxamides as modulators of sodium channels” (VERTEX PHARMACEUTICALS INCORPORATED, priority 2019, dated 2025):

Biological target: human NaV 1.8 (Homo sapiens, UniProt Q9Y5Y9)
Assay: E-VIPR assay for detecting and measuring NaV inhibition properties
Assay type: cell-based
Conditions: E-VIPR assay conducted in the presence of human serum; HEK cells expressing truncated human NaV 1.8; read-out: IC50
Procedure, shortened: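 HEK cells with truncated human NaV1.8 plus KIR2.1 BacMam, hexyl dye loaded 20 min, compound 30 min at room temperature, 11-point 3-fold series […], 0.625% DMSO, with or without human serum. E-VIPR biphasic stimulation at 10 Hz for 10 s; membrane-potential response read as normalized coumarin/oxonol ratio.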

Chain of human NaV 1.8 (Q9Y5Y9 whole entry, looked up): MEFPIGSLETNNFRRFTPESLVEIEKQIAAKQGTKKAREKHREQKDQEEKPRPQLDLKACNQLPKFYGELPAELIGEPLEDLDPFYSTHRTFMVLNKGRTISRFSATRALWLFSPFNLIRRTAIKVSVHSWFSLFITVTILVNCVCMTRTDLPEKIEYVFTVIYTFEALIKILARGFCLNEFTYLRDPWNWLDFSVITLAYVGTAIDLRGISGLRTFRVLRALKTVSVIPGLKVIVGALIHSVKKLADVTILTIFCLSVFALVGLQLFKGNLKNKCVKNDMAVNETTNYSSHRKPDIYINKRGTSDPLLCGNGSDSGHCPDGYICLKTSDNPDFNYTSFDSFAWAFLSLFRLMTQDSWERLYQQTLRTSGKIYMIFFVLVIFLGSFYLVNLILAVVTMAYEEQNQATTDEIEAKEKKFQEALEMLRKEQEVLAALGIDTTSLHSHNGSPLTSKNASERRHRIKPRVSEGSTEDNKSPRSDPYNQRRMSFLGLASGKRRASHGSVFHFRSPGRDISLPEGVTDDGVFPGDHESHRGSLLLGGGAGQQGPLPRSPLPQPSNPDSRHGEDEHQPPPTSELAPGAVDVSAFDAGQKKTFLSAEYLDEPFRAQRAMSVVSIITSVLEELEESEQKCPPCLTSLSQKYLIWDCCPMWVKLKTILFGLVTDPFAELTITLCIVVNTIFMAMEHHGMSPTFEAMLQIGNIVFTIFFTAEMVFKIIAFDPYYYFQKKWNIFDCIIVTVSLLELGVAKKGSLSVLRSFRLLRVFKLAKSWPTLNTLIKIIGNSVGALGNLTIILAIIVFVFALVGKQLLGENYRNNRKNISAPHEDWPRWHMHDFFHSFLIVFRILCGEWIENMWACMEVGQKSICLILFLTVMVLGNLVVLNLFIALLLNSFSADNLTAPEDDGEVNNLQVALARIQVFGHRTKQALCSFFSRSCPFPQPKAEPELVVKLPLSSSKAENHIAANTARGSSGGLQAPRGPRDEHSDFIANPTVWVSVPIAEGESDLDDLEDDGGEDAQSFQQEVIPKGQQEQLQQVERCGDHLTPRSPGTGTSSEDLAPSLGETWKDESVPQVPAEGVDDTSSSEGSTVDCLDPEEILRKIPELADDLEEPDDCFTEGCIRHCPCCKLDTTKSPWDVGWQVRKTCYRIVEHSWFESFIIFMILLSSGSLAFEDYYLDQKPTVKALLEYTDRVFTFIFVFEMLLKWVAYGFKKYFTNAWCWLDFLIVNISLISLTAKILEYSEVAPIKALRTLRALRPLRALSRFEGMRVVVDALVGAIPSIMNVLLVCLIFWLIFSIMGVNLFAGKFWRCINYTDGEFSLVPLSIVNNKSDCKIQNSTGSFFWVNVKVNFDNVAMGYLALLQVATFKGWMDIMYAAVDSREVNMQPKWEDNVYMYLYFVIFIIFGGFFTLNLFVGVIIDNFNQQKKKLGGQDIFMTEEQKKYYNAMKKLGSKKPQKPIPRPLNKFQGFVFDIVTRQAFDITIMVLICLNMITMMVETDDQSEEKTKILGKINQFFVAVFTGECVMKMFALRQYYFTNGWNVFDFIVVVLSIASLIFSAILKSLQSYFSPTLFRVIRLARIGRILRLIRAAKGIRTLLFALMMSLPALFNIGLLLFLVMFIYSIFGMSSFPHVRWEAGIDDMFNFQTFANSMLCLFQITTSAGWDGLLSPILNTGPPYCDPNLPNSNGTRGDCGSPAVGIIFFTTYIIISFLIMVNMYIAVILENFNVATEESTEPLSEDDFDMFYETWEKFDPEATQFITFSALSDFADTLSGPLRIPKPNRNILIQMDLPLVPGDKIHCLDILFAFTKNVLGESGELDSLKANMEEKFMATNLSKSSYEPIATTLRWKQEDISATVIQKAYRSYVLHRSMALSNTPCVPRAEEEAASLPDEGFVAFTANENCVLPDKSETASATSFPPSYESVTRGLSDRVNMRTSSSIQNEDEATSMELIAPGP

First: COc1c(C(F)(F)F)ccc(Oc2ccc(OC(F)(F)F)cc2Cl)c1C(=O)Nc1ccnc(C(N)=O)c1 [Compound 66, 4-[[6-[2-chloro-4-(trifluoromethoxy)phenoxy]-2-methoxy-3-(trifluoromethyl)benzoyl]amino]pyridine-2-carboxamide]
Second: CCOc1c(C(F)(F)F)ccc(Oc2ccc(OC(F)(F)F)cc2OC)c1C(=O)Nc1ccnc(C(N)=O)c1 [Compound 83, 4-[[2-ethoxy-6-[2-methoxy-4-(trifluoromethoxy)phenoxy]-3-(trifluoromethyl)benzoyl]amino]pyridine-2-carboxamide]
The IC50 of the first is 10-fold lower: 16 nM for the first, 160 nM for the second. The first is the more potent here.

First: COc1c(C(F)(F)F)ccc(Oc2ccc(OC(C)C)c(F)c2)c1C(=O)Nc1ccnc(C(N)=O)c1 [Compound 67, 4-[[6-(3-fluoro-4-isopropoxy-phenoxy)-2-methoxy-3-(trifluoromethyl)benzoyl]amino]pyridine-2-carboxamide]
Second: COc1cc(Oc2ccc(C(F)(F)F)c(OC)c2C(=O)Nc2ccnc(C(N)=O)c2)ccc1F [Compound 69, 4-[[6-(4-fluoro-3-methoxy-phenoxy)-2-methoxy-3-(trifluoromethyl)benzoyl]amino]pyridine-2-carboxamide]
The IC50 of the first is lower: 110 nM for the first, > 3000 nM for the second. The first is the more potent here.

First: COc1c(C(F)(F)F)ccc(Oc2ccc(F)c3c2OCC3)c1C(=O)Nc1ccnc(C(N)=O)c1 [Compound 68, 4-[[6-[(4-fluoro-2,3-dihydrobenzofuran-7-yl)oxy]-2-methoxy-3-(trifluoromethyl)benzoyl]amino]pyridine-2-carboxamide]
Second: NC(=O)c1cc(NC(=O)c2c(Oc3ccc(F)c4c3OCC4)cccc2C(F)(F)F)ccn1 [Compound 78, 4-[[2-[(4-fluoro-2,3-dihydrobenzofuran-7-yl)oxy]-6-(trifluoromethyl)benzoyl]amino]pyridine-2-carboxamide]
The IC50 of the first is lower: 290 nM for the first, > 3000 nM for the second.

First: COc1c(C(F)(F)F)ccc(Oc2ccc(C(F)(F)F)nc2)c1C(=O)Nc1ccnc(C(N)=O)c1 [Compound 70, 4-[[2-methoxy-3-(trifluoromethyl)-6-[[6-(trifluoromethyl)-3-pyridyl]oxy]benzoyl]amino]pyridine-2-carboxamide]
Second: COc1cc(OC(F)(F)F)ccc1Oc1ccc(C(F)(F)F)c(OC2CC2)c1C(=O)Nc1ccnc(C(N)=O)c1 [Compound 85, 4-[[2-(cyclopropoxy)-6-[2-methoxy-4-(trifluoromethoxy)phenoxy]-3-(trifluoromethyl)benzoyl]amino]pyridine-2-carboxamide]
The IC50 of the first is higher: > 3000 nM for the first, 180 nM for the second. The second is the more potent here.

Compared with `CC(C)Oc1ccc(Oc2cccc(C(F)(F)F)c2C(=O)Nc2ccnc(C(N)=O)c2)c(F)c1F` [Compound 72, 4-[[2-(2,3-difluoro-4-isopropoxy-phenoxy)-6-(trifluoromethyl)benzoyl]amino]pyridine-2-carboxamide], `CC(C)Oc1ccc(Oc2cccc(C(F)(F)F)c2C(=O)Nc2ccnc(C(N)=O)c2)cc1F` [Compound 74, 4-[[2-(3-fluoro-4-isopropoxy-phenoxy)-6-(trifluoromethyl)benzoyl]amino]pyridine-2-carboxamide] is 2.1-fold higher in IC50: 560 nM for the first, 1200 nM for the second.

`COc1nc(Cl)ccc1Oc1cccc(C(F)(F)F)c1C(=O)Nc1ccnc(C(N)=O)c1` [Compound 73, 4-[[2-[(6-chloro-2-methoxy-3-pyridyl)oxy]-6-(trifluoromethyl)benzoyl]amino]pyridine-2-carboxamide] and `COc1cc(F)ccc1Oc1cccc(C(F)(F)F)c1C(=O)Nc1ccnc(C(N)=O)c1` [Compound 75, 4-[[2-(4-fluoro-2-methoxy-phenoxy)-6-(trifluoromethyl)benzoyl]amino]pyridine-2-carboxamide] are within 1.5-fold of each other in IC50: 1500 nM for the first, 1750 nM for the second.

`NC(=O)c1cc(NC(=O)c2c(Oc3ccc(F)cc3F)cccc2C(F)(F)F)ccn1` [Compound 77, 4-[[2-(2,4-difluorophenoxy)-6-(trifluoromethyl)benzoyl]amino]pyridine-2-carboxamide] and `NC(=O)c1cc(NC(=O)c2c(Oc3ccc(F)cc3Cl)cccc2C(F)(F)F)ccn1` [Compound 79, 4-[[2-(2-chloro-4-fluoro-phenoxy)-6-(trifluoromethyl)benzoyl]amino]pyridine-2-carboxamide] cannot be ordered by IC50: > 3000 nM for the first, > 3000 nM for the second.

`NC(=O)c1cc(NC(=O)c2c(Oc3ccc(F)c(Cl)c3)cccc2C(F)(F)F)ccn1` [Compound 80, 4-[[2-(3-chloro-4-fluoro-phenoxy)-6-(trifluoromethyl)benzoyl]amino]pyridine-2-carboxamide] and `CC(C)Oc1ccc(Oc2cccc(C(F)(F)F)c2C(=O)Nc2ccnc(C(N)=O)c2)c(F)c1` [Compound 81, 4-[[2-(2-fluoro-4-isopropoxy-phenoxy)-6-(trifluoromethyl)benzoyl]amino]pyridine-2-carboxamide] cannot be ordered by IC50: > 3000 nM for the first, > 3000 nM for the second.

Compared with `COc1cc(OC(F)(F)F)ccc1Oc1ccc(C(F)(F)F)c(OCC(C)C)c1C(=O)Nc1ccnc(C(N)=O)c1` [Compound 82, 4-[[2-isobutoxy-6-[2-methoxy-4-(trifluoromethoxy)phenoxy]-3-(trifluoromethyl)benzoyl]amino]pyridine-2-carboxamide], `COc1cc(OC(F)(F)F)ccc1Oc1ccc(C(F)(F)F)c(NCC(C)C)c1C(=O)Nc1ccnc(C(N)=O)c1` [Compound 87, 4-[[2-(isobutylamino)-6-[2-methoxy-4-(trifluoromethoxy)phenoxy]-3-(trifluoromethyl)benzoyl]amino]pyridine-2-carboxamide] is lower in IC50: > 3000 nM for the first, 1500 nM for the second. The second is the more potent here.

First: COc1cc(OC(F)(F)F)ccc1Oc1ccc(C(F)(F)F)c(OCC2CC2)c1C(=O)Nc1ccnc(C(N)=O)c1 [Compound 84, 4-[[2-(cyclopropylmethoxy)-6-[2-methoxy-4-(trifluoromethoxy)phenoxy]-3-(trifluoromethyl)benzoyl]amino]pyridine-2-carboxamide]
Second: COc1cc(OC(F)(F)F)ccc1Oc1ccc(C(F)(F)F)c(OCC2CC2(F)F)c1C(=O)Nc1ccnc(C(N)=O)c1 (centres unmarked) [Compound 86, 4-[[2-[(2,2-difluorocyclopropyl)methoxy]-6-[2-methoxy-4-(trifluoromethoxy)phenoxy]-3-(trifluoromethyl)benzoyl]amino]pyridine-2-carboxamide]
The IC50 of the first is 1.6-fold lower: 625 nM for the first, 1000 nM for the second. The first is the more potent here.

`[2H]C([2H])([2H])Oc1cc(OC(F)(F)F)ccc1Oc1cc(-c2ccc(C)cc2)cc(F)c1C(=O)Nc1ccnc(C(N)=O)c1` [Compound 88, 4-[[2-fluoro-4-(p-tolyl)-6-[2-(trideuteriomethoxy)-4-(trifluoromethoxy)phenoxy]benzoyl]amino]pyridine-2-carboxamide] and `[2H]C([2H])([2H])Oc1cc(OC(F)(F)F)ccc1Oc1cc(-c2ccc(F)cc2)cc(F)c1C(=O)Nc1ccnc(C(N)=O)c1` [Compound 89, 4-[[2-fluoro-4-(4-fluorophenyl)-6-[2-(trideuteriomethoxy)-4-(trifluoromethoxy)phenoxy]benzoyl]amino]pyridine-2-carboxamide] are within 1.5-fold of each other in IC50: 39 nM for the first, 36 nM for the second.

Going from `[2H]C([2H])([2H])Oc1cc(OC(F)(F)F)ccc1Oc1cc(-c2cccnc2)cc(F)c1C(=O)Nc1ccnc(C(N)=O)c1` [Compound 90, 4-[[2-fluoro-4-(3-pyridyl)-6-[2-(trideuteriomethoxy)-4-(trifluoromethoxy)phenoxy]benzoyl]amino]pyridine-2-carboxamide] to `[2H]C([2H])([2H])Oc1cc(OC(F)(F)F)ccc1Oc1cc(-c2ccncc2)cc(F)c1C(=O)Nc1ccnc(C(N)=O)c1` [Compound 91, 4-[[2-fluoro-4-(4-pyridyl)-6-[2-(trideuteriomethoxy)-4-(trifluoromethoxy)phenoxy]benzoyl]amino]pyridine-2-carboxamide], the IC50 rises from 210 nM to 440 nM (2.1-fold). The first is the more potent here.

First: [2H]C([2H])([2H])Oc1cc(OC(F)(F)F)ccc1Oc1cc(-c2ccccc2)cc(F)c1C(=O)Nc1ccnc(C(N)=O)c1 [Compound 92, 4-[[2-fluoro-4-phenyl-6-[2-(trideuteriomethoxy)-4-(trifluoromethoxy)phenoxy]benzoyl]amino]pyridine-2-carboxamide]
Second: [2H]C([2H])([2H])Oc1cc(OC(F)(F)F)ccc1Oc1cc(-c2cccc(C(F)(F)F)c2)cc(F)c1C(=O)Nc1ccnc(C(N)=O)c1 [Compound 94, 4-[[2-fluoro-6-[2-(trideuteriomethoxy)-4-(trifluoromethoxy)phenoxy]-4-[3-(trifluoromethyl)phenyl]benzoyl]amino]pyridine-2-carboxamide]
The IC50 of the first is 1.6-fold higher: 63 nM for the first, 39 nM for the second. The second is the more potent here.

Compared with `[2H]C([2H])([2H])Oc1cc(OC(F)(F)F)ccc1Oc1cc(-c2ccc(C(F)(F)F)cc2)cc(F)c1C(=O)Nc1ccnc(C(N)=O)c1` [Compound 93, 4-[[2-fluoro-6-[2-(trideuteriomethoxy)-4-(trifluoromethoxy)phenoxy]-4-[4-(trifluoromethyl)phenyl]benzoyl]amino]pyridine-2-carboxamide], `[2H]C([2H])([2H])Oc1cc(OC(F)(F)F)ccc1Oc1cc(-c2ccccc2C(F)(F)F)cc(F)c1C(=O)Nc1ccnc(C(N)=O)c1` [Compound 95, 4-[[2-fluoro-6-[2-(trideuteriomethoxy)-4-(trifluoromethoxy)phenoxy]-4-[2-(trifluoromethyl)phenyl]benzoyl]amino]pyridine-2-carboxamide] is 11-fold higher in IC50: 13 nM for the first, 140 nM for the second.

`[2H]C([2H])([2H])Oc1cc(OC(F)(F)F)ccc1Oc1cc(C2CCCC2)cc(F)c1C(=O)Nc1ccnc(C(N)=O)c1` [Compound 96, 4-[[4-Cyclopentyl-2-Fluoro-6-[2-(Trideuteriomethoxy)-4-(Trifluoromethoxy)Phenoxy]Benzoyl]Amino]Pyridine-2-Carboxamide] and `[2H]C([2H])([2H])Oc1cc(OC(F)(F)F)ccc1Oc1cc(C2CCCCC2)cc(F)c1C(=O)Nc1ccnc(C(N)=O)c1` [Compound 97] are within 1.5-fold of each other in IC50: 13 nM for the first, 14 nM for the second.

Going from `[2H]C([2H])([2H])Oc1cc(OC(F)(F)F)ccc1Oc1cc(C2CCC(F)(F)CC2)cc(F)c1C(=O)Nc1ccnc(C(N)=O)c1` [Compound 98] to `[2H]C([2H])([2H])Oc1cc(OC(F)(F)F)ccc1Oc1cc(C(F)(F)F)c(F)cc1C(=O)Nc1ccnc(C(N)=O)c1` [Compound 99, 4-[[5-fluoro-2-[2-(trideuteriomethoxy)-4-(trifluoromethoxy)phenoxy]-4-(trifluoromethyl)benzoyl]amino]pyridine-2-carboxamide], the IC50 rises from 23 nM to 380 nM (17-fold).
